Experimental data: article PMC9251361, “Effects of LPS Composition in Escherichia coli on Antibacterial Activity and Bacterial Uptake of Antisense Peptide-PNA Conjugates” (Frontiers in Microbiology, 2022)
In brackets after ≈: the same amount, converted by molar mass. Read-outs that look alike come from different tables or passages of the source. Positions of bridges follow the written chain, without caps; N, C: chain ends. Non-standard residues stand in square brackets, D forms with d. Residues, ends and D or L forms follow the SMILES beside them. *: point of attachment. X1 = CC[C@H](C)CCCCC(=O)*; Dab = NCC[C@H](N)C(=O)O

Legend:
[1] = tested on: E. coli 122 ΔrfaF (ATCC25922 ΔrfaF); type: cell-based, Escherichia coli; details: Table 2; strain 122 ΔrfaF; MHB, 37°C, 18 h
Experimental: (§1) All strains used in this study are listed in Supplementary Table S1. E. coli strains WD101 and WD101ΔeptAΔarnD (WD101ΔΔ) were kindly provided by Professor M. Stephen Trent (University of Georgia, USA). E. coli strains DB wild type, DB L5, and DB L9 were kindly provided by Dr. Douglas Browning (University of Birmingham, UK). Single deletion strains for envelope mutants were obtained from the Keio-collection (Baba et al., [2006]). All strains were grown in non-cation adjusted Muller Hinton broth (MHB) (Sigma, Cat. No. 70192). BPP-PNA conjugates (Table 1) were obtained as described previously (Good et al., [2001]; Ghosal et al., [2013]; Hansen et al., [2016]).
(§2) Minimum inhibitory concentration (MIC) values were determined by broth microdilution according to standard protocols adapted to peptide-based antimicrobial compounds (Goltermann and Nielsen, [2020]). Briefly, 190 μl bacterial cell culture containing ≈10^5 cfu/ml was dispensed into a 96-well plate (Thermo Scientific, Nunc Cat. No. 260896, 96F straight w/lid) along with 10 μl PNA stock solution or antibiotic. The plate was incubated in a Tecan Genios plate reader at 37°C for 18 h, and OD was measured every 20 min at 595 nm. The MIC was determined as the lowest concentration, which inhibited visible growth (OD < 0.1) in the wells. […] Experiments were performed in triplicates as a minimum.

[2] = tested on: E. coli WD101 (polymyxin-resistant pmrA^C); type: cell-based, Escherichia coli; details: Table 2; strain WD101; MHB, 37°C, 18 h
Experimental: as §1, §2

[3] = tested on: E. coli R4 core type (F2513); type: cell-based, Escherichia coli; details: Table 2; strain R4; MHB, 37°C, 18 h
Experimental: as §1, §2

[4] = tested on: E. coli R2 core type (F632); type: cell-based, Escherichia coli; details: Table 2; strain R2; MHB, 37°C, 18 h
Experimental: as §1, §2

[5] = tested on: E. coli R3 core type (F653); type: cell-based, Escherichia coli; details: Table 2; strain R3; MHB, 37°C, 18 h
Experimental: as §1, §2

E. coli WD101ΔΔ = type: cell-based, Escherichia coli; details: Table 2; strain WD101ΔΔ; MHB, 37°C, 18 h
Experimental: as §1, §2

E. coli ATCC25922 = type: cell-based, Escherichia coli; details: strain ATCC25922, MHB, 37°C, 18 h; for MIC values: Table 3
Experimental: as §1, §2

[6] = tested on: E. coli 123 ΔrfaG (ATCC25922 ΔrfaG); type: cell-based, Escherichia coli; details: Table 2; strain 123 ΔrfaG; MHB, 37°C, 18 h
Experimental: as §1, §2

E. coli K12 MG1655 = experiment: microbe, parasite or virus in culture; type: cell-based, Escherichia coli; details: 37°C, 18 h; for MIC values: Table 3, strain MG1655
Experimental: as §1, §2

[7] = tested on: E. coli R1 core type (F470); type: cell-based, Escherichia coli; details: Table 2, strain R1* (48 h), MHB, 37°C
Experimental: as §1
as §2, with “The plate was incubated in a Tecan Genios plate reader at 37°C for 18 h, and OD was measured every 20 min at 595 nm.” left out

[8] = tested on: E. coli ATCC25922 ΔrfaC (120 ΔrfaC); experiment: MIC broth microdilution; type: cell-based, Escherichia coli; details: for MIC values: Table 3, strain ATCC25922 ΔrfaC
Experimental: as §1, §2

E. coli MG1655 ΔsbmA = experiment: MIC broth microdilution; type: cell-based, Escherichia coli; details: Table 3; strain MG1655 ΔsbmA; MHB, 37°C, 18 h
Experimental: as §1, §2

E. coli AS19 = experiment: MIC broth microdilution; type: cell-based, Escherichia coli; details: Table 2; strain AS19; MHB, 37°C, 18 h
Experimental: as §1, §2

[9] = tested on: E. coli 121 ΔrfaE (ATCC25922 ΔrfaE); experiment: MIC broth microdilution; type: cell-based, Escherichia coli; details: Table 2; strain 121 ΔrfaE; MHB, 37°C, 18 h
Experimental: as §1, §2

[10] = tested on: E. coli inner core mutants (ΔrfaC, ΔrfaE, ΔrfaF, and ΔrfaG); experiment: MIC broth microdilution, inner core mutants as a group; type: cell-based, Escherichia coli; details: all the inner core mutants as well as AS19
Experimental: as §2
Four inner core mutants (ΔrfaC, ΔrfaE, ΔrfaF, and ΔrfaG) with increasingly shortened LPS core (Figure 2A) were investigated. The deletions span the three heptosyl and glycosyltransferases rfaC, rfaF, and rfaG responsible for attaching heptose and glucose, respectively, to the growing LPS core, and rfaE required for the synthesis of the heptose precursor needed for LPS synthesis (Figure 2A). […] Furthermore, all strains were characterized with respect to hydrophobicity and accessible cell surface charge (Figure 2B, vide infra). […] It is known that the peptide portion of the conjugates can have a membrane disruptive effect at high concentrations (Eriksson et al., [2002]). […]

[11] = HPLC analysis of BPP-PNA relative hydrophobicity; type: physicochemical; details: chromatographic measure of hydrophobicity; RP18 column (150 ×3.9 mm DeltaPak, 5 μm); 0 to 40% buffer B (95% acetonitrile, 0.1% TFA) in 30 min; conjugates dissolved in water and mixed; recorded at 260 nm
Experimental: Hydrophobicity of the BPP-PNA conjugates was measured using reversed phase high-performance liquid chromatography (HPLC) on an RP18 column (150 ×3.9 mm DeltaPak, 5 μm; Waters Corporation, Milford, MA, USA). Briefly, all the BPP-PNA conjugates were dissolved in water and mixed. The mixture of BPP-PNA conjugates has been run on HPLC and recorded at 260 nm. The HPLC buffers used in this study are buffer A composed of 5% acetonitrile, 0.1% trifluoroacetic acid (TFA), and 95% H2O, and buffer B composed of 95% acetonitrile, 0.1% TFA, and 5% H2O; the gradient starts from 100% of buffer A, 0% of buffer B, and ends with 60% of buffer A, 40% of buffer B in 30 min. Hydrophobicity of the compound was directly correlated to the HPLC retention time of each conjugate.

[12] = Table 2, strain K12 MG1655, MHB

Compound: CC[C@H](C)CCCCC(=O)N[C@@H](CCN)C(=O)N[C@H](C(=O)N[C@@H](CCN)C(=O)N[C@H]1CCNC(=O)[C@H]([C@@H](C)O)NC(=O)[C@H](CCN)NC(=O)[C@H](CCN)NC(=O)[C@H](CC(C)C)NC(=O)[C@@H](CC(C)C)NC(=O)[C@H](CCN)NC1=O)[C@@H](C)O [Colistin] (X1-[Dab]T[Dab][Dab][Dab][dL]L[Dab][Dab]T; lactam 4-C (inferred); N-terminus assumed)
- Minimum inhibitory concentration, Colistin [1]: 0.016 µg/mL (≈ 0.0137 µM)
- Minimum inhibitory concentration, Colistin [2]: 4 µg/mL (≈ 3.42 µM)
- Minimum inhibitory concentration, Colistin [3]: 0.03 µg/mL (≈ 0.0257 µM)
- Minimum inhibitory concentration, Colistin [4]: 0.03 µg/mL (≈ 0.0257 µM)
- Minimum inhibitory concentration, Colistin [5]: 0.06 µg/mL (≈ 0.0513 µM)
- Minimum inhibitory concentration, Colistin (E. coli WD101ΔΔ): ≤ 0.016 µg/mL
- Minimum inhibitory concentration, Colistin (E. coli ATCC25922; Table 2): 0.06 µg/mL (≈ 0.0513 µM)
- Minimum inhibitory concentration, Colistin [6]: ≤ 0.016 µg/mL
- Minimum inhibitory concentration, Colistin (E. coli K12 MG1655; [12]): 0.03 µg/mL (≈ 0.0257 µM)
- Minimum inhibitory concentration, Colistin [7]: 0.016 µg/mL (≈ 0.0137 µM)

Compound: -Cys-GKPRPYSPRPTSHPRPIRV-R-X-R-NH2 [PNA4448, anti acpP PNA conjugated to drosocin extended by R-X-R]
- MIC values ([8]; MHB, 37°C, 18 h): <0.12 µM
- MIC values (E. coli MG1655 ΔsbmA): 2 µM
- MIC values (E. coli ATCC25922): 2 µM
- MIC values (E. coli K12 MG1655; MHB): 1 to 2 µM

Compound: -Cys-RAGLQFPVGRVHRLLRK-NH2 (BF2A) [PNA4243, mm for PNA4030]
- MIC values ([8]; MHB, 37°C, 18 h): <2 µM
- MIC values (E. coli ATCC25922): >8 µM

Compound: -Cys-VDKPPYLPRPRPPRRIYNR-NH2 (oncocin) [PNA4124, anti acpP PNA conjugated to oncocin via Cys]
- MIC values ([8]; MHB, 37°C, 18 h, listed as 4124): 0.25 µM
- MIC values (E. coli MG1655 ΔsbmA): >8 µM
- MIC values (E. coli ATCC25922; listed as 4124): >2 µM
- MIC values (E. coli K12 MG1655; MHB): 8 µM

Compound: -Cys-GKPRPYSPRPTSHPRPIRV-NH2 (Drosocin) [PNA4242, mm for PNA4128]
- MIC values ([8]; MHB, 37°C, 18 h, listed as 4242): <1 µM
- MIC values (E. coli ATCC25922; listed as 4242): >8 µM

Compound: CCCCCCCCCCCCOS(=O)(=O)[O-].[Na+] [SDS, sodium dodecyl sulfate]
- Minimum inhibitory concentration, SDS (E. coli AS19): ≤ 0.03%
- Minimum inhibitory concentration, SDS ([8]; Table 2, strain 120 ΔrfaC, MHB, 37°C, 18 h): ≤ 0.03%
- Minimum inhibitory concentration, SDS [9]: ≤ 0.03%
- MIC, SDS [10]: < 0.03%
- Minimum inhibitory concentration, SDS [1]: ≤ 0.03%
- Minimum inhibitory concentration, SDS [2]: 0.12%
- Minimum inhibitory concentration, SDS [3]: ≤ 0.06%
- Minimum inhibitory concentration, SDS [4]: >0.5%
- Minimum inhibitory concentration, SDS [5]: >0.5%
- Minimum inhibitory concentration, SDS (E. coli WD101ΔΔ): 0.12%
- Minimum inhibitory concentration, SDS (E. coli ATCC25922; Table 2): 0.12%
- Minimum inhibitory concentration, SDS [6]: ≤ 0.03%
- Minimum inhibitory concentration, SDS (E. coli K12 MG1655; [12]): 0.12%

Compound: H-CTCATACTCT-NH2 [PNA2301, unconjugated anti acpP PNA, H-…-NH2]
- Minimum inhibitory concentration (E. coli AS19): 2 µM
- HPLC retention time (RT) [11]: 14 min
- Minimum inhibitory concentration [1]: >4 µM
- Minimum inhibitory concentration [3]: >16 µM
- Minimum inhibitory concentration [5]: >16 µM
- Minimum inhibitory concentration (E. coli ATCC25922; Table 2): >16 µM
- Minimum inhibitory concentration [6]: >16 µM
- Minimum inhibitory concentration (E. coli K12 MG1655; Table 2, strain K12 MG1655, non-cation adjusted MHB, ≈10^5 cfu/ml, triplicates minimum): >32 µM

Compound: -Cys-GKPRPYSPRPTSHPRPIRV-NH2 (Drosocin) [PNA4128, anti acpP PNA conjugated to drosocin via Cys]
- MIC values ([8]; MHB, 37°C, 18 h, listed as 4128): <0.06 µM
- fold lower MIC in the ΔrfaC-mutant than the ATCC25922 control ([8]; ΔrfaC-mutant vs ATCC25922): more than 16 fold
- MIC values (E. coli MG1655 ΔsbmA): 4 to 8 µM
- MIC values (E. coli ATCC25922; listed as 4128): 1 µM
- MIC values (E. coli K12 MG1655; MHB): 0.5 to 1 µM

Compound: -Cys-RAGLQFPVGRVHRLLRK-R-X-R-NH2 (BF2A) [PNA4449, anti acpP PNA conjugated to BF2A extended by R-X-R]
- MIC values ([8]; MHB, 37°C, 18 h): <0.25 µM
- MIC values (E. coli MG1655 ΔsbmA): >4 µM
- MIC values (E. coli ATCC25922): 1 µM
- MIC values (E. coli K12 MG1655; MHB): <0.5 µM

Compound: -Cys- RAGLQFPVGRVHRLLRK-NH2 (BF2A) [PNA4030, anti acpP PNA conjugated to buforin 2a (BF2A) via Cys]
- MIC values ([8]; MHB, 37°C, 18 h): <0.25 µM
- MIC values (E. coli MG1655 ΔsbmA): 8 to 16 µM
- MIC values (E. coli ATCC25922): 0.5 µM
- MIC values (E. coli K12 MG1655; MHB): 1 µM

Compound: -Cys-VDKPPYLPRPRPPRRIYNR-NH2 (oncocin) [PNA4700, mm for PNA4124]
- MIC values ([8]; MHB, 37°C, 18 h, listed as 4700): 4 µM
- MIC values (E. coli ATCC25922; listed as 4700): >8 µM
